# Reference: US8188059B2, “Compounds and methods for modulating expression of GCGR” (Isis Pharmaceuticals, Inc., priority 2006, dated 2012)
# Strand notation (5' to 3'): a small letter for the sugar, then the base; units joined by * are phosphorothioate-linked, units joined directly phosphodiester-linked; [ ] holds rarer units or linkages, { } end groups; capitals alone tell only the bases. e = 2'-O-(2-methoxyethyl) (MOE); [5mC] = 5-methylcytosine; d = 2'-deoxy (DNA)
# Assay: ALT & AST levels, C57/BL6 mice (Example 4, Table 32)
# Assay type: in vivo, mouse
# Conditions: for ALT Pre-Bleed / AST Pre-Bleed: pre-treatment bleed; for ALT Post-Bleed / AST Post-Bleed: 48 hours following injection
# Method: Eight-week old male C57/BL6 mice (Jackson Laboratory, Bar Harbor, Me.) were administered a single dose of GCGR oligonucleotide by intraperitoneal injection at a concentration of […]. Each dose group consisted of four animals. Shown in Table 31 are the sequences, motifs and conjugates of the GCGR antisense compounds used in this study. Bolded residues indicate 2′-O-methoxyethyl (2′-MOE) moieties. All compounds comprise phosphorothioate internucleoside linkages throughout and each cytosine is replaced with 5-methylcytosine. ISIS 386626, ISIS 386627 and ISIS 386628 further comprise a C16 conjugate group attached to the 2′-O position of the sugar via a diamide linkage (2′-OCH2C(═O)N(H)(CH2)4N(H)C(═O)—(CH2)15CH3). GCGR antisense compounds target published GCGR sequences, including Genbank® Accession No. BC031885.1 (SEQ ID NO: 7).
# Mice were sacrificed 48 hours following injection to determine serum transaminase levels (Table 32); liver, white adipose tissue (WAT), spleen and kidney weight (Table 33); cholesterol, triglyceride and glucose levels (Table 34); GCGR mRNA levels (Tables 35-41); and full-length and total oligonucleotide concentration in liver and kidney (Table 42). Endpoints were assessed using methods described herein and well known to those of ordinary skill in the art. Data is included from a pre-treatment bleed (Pre-Bleed) and post-treatment bleed (Post-Bleed).
substance,measurement,setting,value
148364 (antisense eT*eG*e[5mC]*eA*e[5mC]*dT*dT*dT*dG*dT*dG*dG*dT*dA*d[5mC]*e[5mC]*eA*eA*eG*eG) [compound 148364],ALT Pre-Bleed,6.25 mg/kg dose group,28 IU/L
same,AST Pre-Bleed,6.25 mg/kg dose group,47 IU/L
same,ALT Pre-Bleed,12.5 mg/kg dose group,23 IU/L
same,AST Pre-Bleed,12.5 mg/kg dose group,44 IU/L
same,ALT Pre-Bleed,25 mg/kg dose group,26 IU/L
same,AST Pre-Bleed,25 mg/kg dose group,42 IU/L
same,ALT Pre-Bleed,50 mg/kg dose group,24 IU/L
same,AST Pre-Bleed,50 mg/kg dose group,40 IU/L
same,ALT Post-Bleed,single i.p. dose 6.25 mg/kg,34 IU/L
same,AST Post-Bleed,single i.p. dose 6.25 mg/kg,76 IU/L
same,ALT Post-Bleed,single i.p. dose 12.5 mg/kg,32 IU/L
same,AST Post-Bleed,single i.p. dose 12.5 mg/kg,69 IU/L
same,ALT Post-Bleed,single i.p. dose 25 mg/kg,35 IU/L
same,AST Post-Bleed,single i.p. dose 25 mg/kg,87 IU/L
same,ALT Post-Bleed,single i.p. dose 50 mg/kg,40 IU/L
same,AST Post-Bleed,single i.p. dose 50 mg/kg,115 IU/L
